Columns and labels:
Format in all cases: physicochemical
[1] = Vitamin D stability in aqueous solution, n-hexane extraction and Reversed Phase HPLC; conditions: pH 7 and pH 2.5, room temperature
Procedure: We further tested the stability of vitamin D:beta-casein solutions in both acidic and neutral pH environments. The solutions prepared were left for a week at room temperature and the sampling was made once a day (in the first three days of the experiment) and once every two days (toward the end of the experiment). Vitamin D was extracted by n-hexane from each sample and its amount was analyzed using Reversed Phase HPLC. The amount of the vitamin left was compared to the amount extracted at time 0. The experiment was performed at two different pH values (pH 7 and pH 2.5).

[2] = Visual comparison of vitamin D solubilization, clarity and precipitation with and without beta-casein
[3] = Turbidity (solution absorbance at 600 nm); conditions: vitamin D 82.5 μg/ml, in the absence of beta-casein, pH 7.0 and 2.5

## C=C1CC[C@H](O)C/C1=C/C=C1\CCC[C@]2(C)[C@@H]([C@H](C)/C=C/[C@H](C)C(C)C)CC[C@@H]12 [vitamin D, ergocalciferol]
[1]; in the presence of beta-casein, one week
  vitamin D stability (amount left versus time 0): degradation process is much slower
[1]; vitamin D alone, aqueous solution
  vitamin D stability (amount left versus time 0): degrades rapidly leaving almost no trace after only two days
[2]; PBS, in the absence of beta-casein, after a week
  precipitation: not observed
[2]; PBS, in the presence of beta-casein, after a week
  precipitation: not observed
[2]; lactic acid buffer pH 2.5, no beta-casein, after a week
  aggregation out of solution: white precipitation
[2]; lactic acid buffer pH 2.5 with beta-casein 0.5% wt, molar ratio 2:1, after a week
  precipitation: not observed
[3]
  turbidity: sudden increase in turbidity value
